Columns and labels:
[1] = target: p70S6K (Homo sapiens, UniProt P23443); assay: Luciferase-coupled chemiluminescence kinase assay (ATP consumption); format: biochemical; details: Table 1; class symbols per key
How it was run: (§1)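 Activity is read as ATP depletion: luciferase-luciferin reagent added after a 3 h ambient-temperature kinase reaction, with total ATP use limited to 25-60%. Before ATP addition, 2.5-5 nM kinase and compound were preincubated 30 min in Tris pH 7.5/MgCl2/TX-100/DTT buffer; […].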

[2] = target: AktK (Homo sapiens, UniProt P31749); assay: as above; format: biochemical; details: Table 1; class symbols per key; read-out: AKT-1 IC50
Sequence of AktK (P31749 whole entry): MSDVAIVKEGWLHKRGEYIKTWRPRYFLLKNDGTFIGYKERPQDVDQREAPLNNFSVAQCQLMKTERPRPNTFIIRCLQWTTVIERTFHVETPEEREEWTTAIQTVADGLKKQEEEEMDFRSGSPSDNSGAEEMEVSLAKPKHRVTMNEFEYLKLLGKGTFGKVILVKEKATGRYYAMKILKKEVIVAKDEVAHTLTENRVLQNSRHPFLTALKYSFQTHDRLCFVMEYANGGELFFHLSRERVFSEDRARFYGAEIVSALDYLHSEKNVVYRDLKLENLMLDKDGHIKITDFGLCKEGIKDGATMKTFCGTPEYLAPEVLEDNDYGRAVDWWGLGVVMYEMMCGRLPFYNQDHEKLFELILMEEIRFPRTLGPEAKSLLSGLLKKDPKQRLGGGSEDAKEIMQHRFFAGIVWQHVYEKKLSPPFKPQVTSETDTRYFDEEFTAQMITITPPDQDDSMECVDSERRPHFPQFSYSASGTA
How it was run: as §1

Sequence of p70S6K (P23443 whole entry): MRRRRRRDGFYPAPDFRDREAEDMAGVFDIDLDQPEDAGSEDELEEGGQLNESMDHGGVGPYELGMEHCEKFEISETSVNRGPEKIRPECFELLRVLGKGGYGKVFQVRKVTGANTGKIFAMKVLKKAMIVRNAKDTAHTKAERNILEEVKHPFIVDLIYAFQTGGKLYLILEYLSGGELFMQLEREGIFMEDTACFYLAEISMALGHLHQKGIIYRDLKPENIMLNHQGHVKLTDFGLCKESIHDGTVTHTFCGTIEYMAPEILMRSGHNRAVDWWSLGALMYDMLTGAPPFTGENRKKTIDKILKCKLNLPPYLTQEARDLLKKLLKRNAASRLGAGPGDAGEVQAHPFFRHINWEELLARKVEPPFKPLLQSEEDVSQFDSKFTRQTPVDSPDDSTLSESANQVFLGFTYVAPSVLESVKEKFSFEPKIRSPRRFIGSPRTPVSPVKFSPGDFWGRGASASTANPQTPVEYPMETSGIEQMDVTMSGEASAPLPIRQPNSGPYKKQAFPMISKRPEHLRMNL

SMILES	IC50 [1] [nM]	IC50 [2] [nM]
CCS(=O)(=O)c1cc(NCCN2CCCC2)c(C)c(N2CCN(c3ncnc4[nH]nc(Br)c34)CC2)c1 [Entry 260, 3-[4-(3-bromo-1H-pyrazolo[3,4-d]pyrimidin-4-yl)piperazin-1-yl]-5-(ethylsulfonyl)-2-methyl-N-(2-pyrrolidin-1-ylethyl)aniline]	< 100	< 100
Cc1c(NCCN2CCCC2)cc(S(C)(=O)=O)cc1N1CCN(c2ncnc3[nH]nc(Br)c23)CC1 [Entry 261, 3-[4-(3-bromo-1H-pyrazolo[3,4-d]pyrimidin-4-yl)piperazin-1-yl]-2-methyl-5-(methylsulfonyl)-N-(2-pyrrolidin-1-ylethyl)aniline]	< 100	100 to 1000
CCCCC(=O)c1cc(NCCN2CCCC2)c(C)c(N2CCN(c3ncnc4[nH]nc(CC)c34)CC2)c1 [Entry 262, 1-{3-[4-(3-ethyl-1H-pyrazolo[3,4-d]pyrimidin-4-yl)piperazin-1-yl]-4-methyl-5-[(2-pyrrolidin-1-ylethyl)amino]phenyl}pentan-1-one]	< 100	< 100
Cc1ccc(OCC(F)(CF)CF)cc1N1CCN(c2ncnc3[nH]nc(Br)c23)CC1 [Entry 263, 3-bromo-4-[4-(5-{[2,3-difluoro-2-(fluorometh-yl)propyl]oxy}-2-methylphenyl)piperazin-1-yl]-1H-pyrazolo[3,4-d]pyrimidine]	< 100	< 100
CC(C)CCNc1c(F)c(NCCN2CCCC2)nc(N2CCN(c3ncnc4[nH]nc(Br)c34)CC2)c1F [Entry 264, 6-[4-(3-bromo-1H-pyrazolo[3,4-d]pyrimidin-4-yl)piperazin-1-yl]-3,5-difluoro-N~4~-(3-methylbutyl)-N~2~-(2-pyrrolidin-1-ylethyl)pyridine-2,4-diamine]	< 100	100 to 1000
Brc1cc(NCCN2CCCC2)cc(N2CCN(c3ncnc4[nH]nc(Br)c34)CC2)c1 [Entry 265, 3-bromo-5-[4-(3-bromo-1H-pyrazolo[3,4-d]pyrimi-din-4-yl)piperazin-1-yl]-N-(2-pyrrolidin-1-ylethyl)aniline]	< 100	< 100
Cc1cc(F)c(-c2ccc(F)c(F)c2)cc1N1CCN(c2ncnc3[nH]nc(Br)c23)CC1 [Entry 266, 3-bromo-4-[4-(3′,4′,6-trifluoro-4-methylbiphenyl-3-yl)piperazin-1-yl]-1H-pyrazolo[3,4-d]pyrimidine]	< 100	100 to 1000
Clc1cc(NCCN2CCCC2)cc(N2CCN(c3ncnc4[nH]nc(Br)c34)CC2)c1 [Entry 267, 3-[4-(3-bromo-1H-pyrazolo[3,4-d]pyrimidin-4-yl)piperazin-1-yl]-5-chloro-N-(2-pyrrolidin-1-ylethyl)aniline]	< 100	< 100
Cc1c(NCCN2CCCC2)cc(CO)cc1N1CCN(c2ncnc3[nH]nc(Br)c23)CC1 [Entry 268, {3-[4-(3-bromo-1H-pyrazolo[3,4-d]pyrimidin-4-yl)piperazin-1-yl]-4-methyl-5-[(2-pyrrolidin-1-ylethyl)amino]phenyl}methanol]	< 100	100 to 1000
Cc1c(NCCN2CCCC2)cc(OCC2CC2(F)F)cc1N1CCN(c2ncnc3[nH]nc(Br)c23)CC1 (centres unmarked) [Entry 270, 3-[4-(3-bromo-1H-pyrazolo[3,4-d]pyrimidin-4-yl)piperazin-1-yl]-5-{[(2,2-difluorocyclopro-pyl)methyl]oxy}-2-methyl-N-(2-pyrrolidin-1-ylethyl)aniline]	< 100	< 100
Cc1c(NCCN2CCCC2)cc(Br)cc1N1CCN(c2ncnc3[nH]nc(Br)c23)CC1 [Entry 271, 5-bromo-3-[4-(3-bromo-1H-pyrazolo[3,4-d]pyrimidin-4-yl)piperazin-1-yl]-2-methyl-N-(2-pyrrolidin-1-ylethyl)aniline]	< 100	< 100
CCOCc1cc(NCCN2CCCC2)c(C)c(N2CCN(c3ncnc4[nH]nc(Br)c34)CC2)c1 [Entry 272, 3-[4-(3-bromo-1H-pyrazolo[3,4-d]pyrimidin-4-yl)piperazin-1-yl]-5-[(ethyloxy)methyl]-2-methyl-N-(2-pyrrolidin-1-ylethyl)aniline]	< 100	< 100
Cn1c(CCCO)nc2c(N3CCN(c4ncnc5[nH]nc(Br)c45)CC3)cc(C(F)(F)F)cc21 [Entry 273, 3-[4-[4-(3-bromo-1H-pyrazolo[3,4-d]pyrimidin-4-yl)piperazin-1-yl]-1-methyl-6-(trifluoromethyl)-1H-benzimidazol-2-yl]propan-1-ol]	< 100	100 to 1000
Cc1c(NCCN2CCCC2)cc(C(=O)CCC(F)(F)F)cc1N1CCN(c2ncnc3[nH]nc(Br)c23)CC1 [Entry 274, 1-{3-[4-(3-bromo-1H-pyrazolo[3,4-d]pyrimidin-4-yl)piperazin-1-yl]-4-methyl-5-[(2-pyrrolidin-1-ylethyl)amino]phenyl}-4,4,4-trifluorobutan-1-one]	< 100	< 100
Cc1c(NCCN2CCCC2)cc(C(=O)C2CC2)cc1N1CCN(c2ncnc3[nH]nc(Br)c23)CC1 [Entry 275, {3-[4-(3-bromo-1H-pyrazolo[3,4-d]pyrimidin-4-yl)piperazin-1-yl]-4-methyl-5-[(2-pyrrolidin-1-ylethyl)amino]phenyl}(cyclopropyl)methanone]	< 100	< 100
Cc1ccc(-c2ccccc2OCCCN(C)C)cc1N1CCN(c2ncnc3[nH]nc(Br)c23)CC1 [Entry 276, 3-({3′-[4-(3-bromo-1H-pyrazolo[3,4-d]pyrimidin-4-yl)piperazin-1-yl]-4′-methylbiphenyl-2-yl}oxy)-N,N-dimethylpropan-1-amine]	< 100	< 100
CCCC(F)(F)c1cc(NCCN2CCCC2)c(C)c(N2CCN(c3ncnc4[nH]nc(Br)c34)CC2)c1 [Entry 277, 3-[4-(3-bromo-1H-pyrazolo[3,4-d]pyrimidin-4-yl)piperazin-1-yl]-5-(1,1-difluorobutyl)-2-methyl-N-(2-pyrrolidin-1-ylethyl)aniline]	< 100	< 100
Cc1ccc(-c2ccccc2OCCCN2CCOCC2)cc1N1CCN(c2ncnc3[nH]nc(Br)c23)CC1 [Entry 278, 3-bromo-4-(4-{4-methyl-2′-[(3-morpholin-4-ylpropyl)oxy]biphenyl-3-yl}piperazin-1-yl)-1H-pyrazolo[3,4-d]pyrimidine]	< 100	< 100
Cc1ccc(-c2ccccc2OCCN2CCOCC2)cc1N1CCN(c2ncnc3[nH]nc(Br)c23)CC1 [Entry 279, 3-bromo-4-(4-{4-methyl-2′-[(2-morpholin-4-ylethyl)oxy]biphenyl-3-yl}piperazin-1-yl)-1H-pyrazolo[3,4-d]pyrimidine]	< 100	< 100
Cc1c(NCCN2CCCC2)cc(COCC(F)(F)F)cc1N1CCN(c2ncnc3[nH]nc(Br)c23)CC1 [Entry 280, 3-[4-(3-bromo-1H-pyrazolo[3,4-d]pyrimidin-4-yl)piperazin-1-yl]-2-methyl-N-(2-pyrrolidin-1-yl-ethyl)-5-{[(2,2,2-trifluoroethyl)oxy]methyl}aniline]	< 100	< 100
Cc1ccc(-c2ccccc2OCCN2C(=O)CCC2=O)cc1N1CCN(c2ncnc3[nH]nc(Br)c23)CC1 [Entry 281, 1-[2-({3′-[4-(3-bromo-1H-pyrazolo[3,4-d]pyrimidin-4-yl)piperazin-1-yl]-4′-methylbiphenyl-2-yl}oxy)ethyl]pyrrolidine-2,5-dione]	< 100	< 100
Cc1ccc(-c2cccc(F)c2OCCN2CCCC2)cc1N1CCN(c2ncnc3[nH]nc(Br)c23)CC1 [Entry 282, 3-bromo-4-(4-{3′-fluoro-4-methyl-2′-[(2-pyrrolidin-1-ylethyl)oxy]biphenyl-3-yl}piperazin-1-yl)-1H-pyrazolo[3,4-d]pyrimidine]	< 100	< 100
CCCC(=O)c1cc(NCCN2CCCC2)cc(N2CCN(c3ncnc4[nH]nc(Br)c34)CC2)c1 [Entry 283, 1-{3-[4-(3-bromo-1H-pyrazolo[3,4-d]pyrimidin-4-yl)piperazin-1-yl]-5-[(2-pyrrolidin-1-ylethyl)amino]phenyl}butan-1-one]	< 100	< 100
Cc1c(NCCN2CCCC2)cc(OCCC(F)(F)F)cc1N1CCN(c2ncnc3[nH]nc(Br)c23)CC1 [Entry 284, 3-[4-(3-bromo-1H-pyrazolo[3,4-d]pyrimidin-4-yl)piperazin-1-yl]-2-methyl-N-(2-pyrrolidin-1-ylethyl)-5-[(3,3,3-trifluoropropyl)oxy]aniline]	< 100	< 100
Cc1c(NCCN2CCCC2)cc(OCC(F)(F)F)cc1N1CCN(c2ncnc3[nH]nc(Br)c23)CC1 [Entry 285, 3-[4-(3-bromo-1H-pyrazolo[3,4-d]pyrimidin-4-yl)piperazin-1-yl]-2-methyl-N-(2-pyrrolidin-1-ylethyl)-5-[(2,2,2-trifluoroethyl)oxy]aniline]	< 100	< 100
CCCC(O)c1cc(NCCN2CCCC2)c(C)c(N2CCN(c3ncnc4[nH]nc(Br)c34)CC2)c1 (centres unmarked) [Entry 286, 1-{3-[4-(3-bromo-1H-pyrazolo[3,4-d]pyrimidin-4-yl)piperazin-1-yl]-4-methyl-5-[(2-pyrrolidin-1-ylethyl)amino]phenyl}butan-1-ol]	< 100	< 100
Clc1ccc(-c2ccccc2OCCN2CCCC2)cc1N1CCN(c2ncnc3[nH]nc(Br)c23)CC1 [Entry 287, 3-bromo-4-(4-{4-chloro-2′-[(2-pyrrolidin-1-ylethyl)oxy]biphenyl-3-yl}piperazin-1-yl)-1H-pyrazolo[3,4-d]pyrimidine]	< 100	< 100
Cc1c(NCCN2CCCC2)cc(OCC(F)(CF)CF)cc1N1CCN(c2ncnc3[nH]nc(C#CCO)c23)CC1 [Entry 288, 3-[4-(4-{5-{[2,3-difluoro-2-(fluoromethyl)pro-pyl]oxy}-2-methyl-3-[(2-pyrrolidin-1-ylethyl)a-mino]phenyl}piperazin-1-yl)-1H-pyrazolo[3,4-d]pyrimidin-3-yl]prop-2-yn-1-ol]	< 100	< 100

Source: patent publication US8076338B2, “Kinase modulators and methods of use” (Exelixis, Inc., priority 2004, dated 2011)
